# “And” between values parts separate entries of the source, which are not always exact repeats. Equal values may be shown once.
# Experiment: Stability testing of the topical gabapentin/ketamine composition
# Type: physicochemical
# Parameters: Assay: unit not given beside the values
# Settings: for Assay (avg): avg of the two determinations; for Assay: single determinations
Compound,"Assay (avg) (2 wk, 25/60)","Assay (2 wk, 25/60)","Assay (avg) (2 wk, 40/75)","Assay (2 wk, 40/75)",Assay (avg) (t = 0),Assay (t = 0),"Assay (2 wk, 25/60, acetic acid)","Assay (2 wk, 40/75, acetic acid)","Assay (t = 0, acetic acid)"
"CNC1(c2ccccc2Cl)CCCCC1=O.Cl (racemic) [Ketamine HCl, (±) 2-(o-chlorophenyl)-2-(methylamino)-cyclohexanone]",105.8,105.9 and 105.7,105.2,105.2,106.3,108.8 and 103.9,–,–,–
"NCC1(CC(=O)O)CCCCC1 [Gabapentin, 1-(aminomethyl)cyclohexane acetic acid]",106.6,–,105.8,–,111.3,–,105.4 and 107.8,106.1 and 105.5,111.9 and 110.7
COC(=O)c1ccc(O)cc1 [Methylparaben],106.1,108.2 and 104.1,108.1,109.6 and 106.7,112.0,111.1 and 112.9,–,–,–

# Source: patent publication US20200297621A1, “Topical Compositions for Neuropathic Pain” (GOOD PHARMACEUTICAL DEVELOPMENT COMPANY, LLC, priority 2016, published 2020)
